What was measured:
Assay type in all cases: physicochemical
[1] = Gel test of gelators; conditions: 3 mg/mL in H2O
Description: Gel test: 0.3 mg/mL in H2O or PBS: clear gel; 0.5 mg/mL in H2O/DMSO (19:1): clear gel; 0.6 mg/mL in H2O/EtOH (19:1): clear gel; 25 mg/ml in EtOH: gel.
Gel test: 3 mg/mL in H2O: gel.
Gel test: 1.0 mg/mL in H2O: gel; acetone 7.0 mg/mL: clear gel.
Gel test: 3 mg/mL in H2O: clear gel.
Gel test: 3.0 mg/mL in H2O: gel

[2] = Optical microscopy of gels and reference solutions
Description: Furosemide, 5 mg, (15×10^−3 mmol), together with 12.5 mg (20×10^−3 mmol) of cHexAm(PheAmBn)(CH2CH2OCH2CH2OH)2 (A), or 12.9 mg (20×10^−3 mmol) of cHexAm(PheAmPhOMe)(CH2CH2OCH2CH2OH)2 (B), or 18.4 mg (20×10^−3 mmol) of cHexAmPheOCH2CH2OCH2CH2OH(C), were dissolved in 50 μL of propylene glycol, 50 μL of PEG400, and 900 μL of water by heating until a clear solution was obtained. As reference, a sample without gelator was prepared (D).
Danazol, 1 mg, (3×10^−3 mmol), together with 3.9 mg (6×10^−3 mmol) of cHexAm(PheAmAQ)(CH2CH2OCH2CH2OH)2 (A), or 5.4 mg (6×10^−3 mmol) of cHexAmPheOCH2CH2OCH2CH2OH (B), were dissolved in 50 μL of DMSO and 950 μL of distilled water by heating until a clear solution was obtained. As reference, a sample without gelator was prepared (C).
Cyclosporin A, 2.5 mg, (2.1×10^−3 mmol), together with 6.3 mg (10×10^−3 mmol) of cHexAm(PheAmBn)(CH2CH2OCH2CH2OH)2 (A) or 9.2 mg (10×10^−3 mmol) of cHexAmPheOCH2CH2OCH2CH2OH (B), were dissolved in 25 μL of propylene glycol, 25 μL of PEG400, and 450 μL of distilled water by heating until a clear solution was obtained. As reference, a sample without gelator was prepared (C).

[3] = TEM analysis of particle size in gel or freeze-dried powder
Description: To a solution containing 4.6 mg (7.6×10^−3 mmol) of cHexAmMetOH gelator and 1.3 mg (3.8×10^−3 mmol) of danazol in 100 μL of DMSO, 900 μL of distilled water were quickly added. […] In a reference sample consisting only of danazol in 100 μL of DMSO and 900 μL of distilled water, rod-shaped danazol particles are 0.5-10 μm wide and 15-53 μm long.
To a solution containing 7 mg (7.6×10^−3 mmol) of cHexAmPheOCH2CH2OCH2CH2OH gelator and 1.3 mg (3.8×10^−3 mmol) of danazol in 100 μL of DMSO, 900 μL of distilled water were quickly added. […] In a reference sample consisting only of danazol in 100 μL of DMSO and 900 μL of distilled water, rod-shaped danazol particles are 0.5-10 μm wide and 15-53 μm long.
Example 6 was repeated but with an increased molar ratio of gelator to danazol, of 5:1.
To a solution containing 1.96 mg (2.9×10^−3 mmol) of cHexAm(PheAQ)(CH2CH2OCH2CH2OH)2 gelator and 1.0 mg (2.9×10^−3 mmol) of danazol in 50 μL of DMSO, 950 μL of distilled water were quickly added.
In a reference sample consisting only of danazol in 100 μL of DMSO to which 900 μL of distilled water was added, rod-shaped danazol particles were formed, which were 0.5-10 μm wide and 15-53 μm long.
Example 8 was repeated with an increased molar ratio of gelator to danazol (from 1:1 to 2:1).
Freeze-drying of a gel containing cHexAmPheOCH2CH2OCH2CH2OH and danazol in a 5:1 molar ratio, in DMSO/water mixture (50 μL/950 μL) yielded a dry powder of gelator and danazol.
Freeze-drying of a gel containing cHexAm(PheAQ)(CH2CH2O CH2CH2OH)2 and danazol in a 5:1 molar ratio, in DMSO/water (50 μL/950 μL) yielded a dry powder of gelator and danazol. […]

[4] = Stability in time of pyrene particles in a gel (TEM)
Description: To determine the stability in time of pyrene particles in a gel, samples were prepared as in Example 3 and examined with TEM after 7 days, 18 days, 1 month and 2 months. As reference, samples containing only pyrene in DMSO/H2O (100 μL/900 μL) were also prepared. Moreover, to determine the effect of the gelator in solution, i.e. not of the gel, samples containing 4 mg (6.0×10^−3 mmol) of cHexAm(PheAQ)(CH2CH2OCH2CH2OH)2 gelator, 1.22 mg (6.0×10^−3 mmol) of pyrene, 100 μL of DMSO and 900 μL of 1N HCl were prepared. The presence of HCl causes the gelator to dissolve and therefore the sample remains a solution. All samples were kept at room temperature, in the dark. FIG. 1: after 7 days only very few particles, 37-185 nm, are present in the sample; after 18 days more particles, 30-190 nm, can be observed; after 1 month also some crystals, ˜150 nm, can be observed; after 2 months more crystals with sizes ranging from 80 to 200 nm are present. FIG. 2: after 7 days crystals, 0.2-3 μm, can be observed; after 18 days more of such crystals can be observed; after 1 month also larger crystals, 6 μm, can be seen; after 2 months more of such crystals can be observed. FIG. 3: after 7 days, 18 days or 1 month crystals, 0.4 to 9 μm, are present; after 2 months crystals, 2-12 μm, can be observed.

[5] = FIG. 6 (b): gel of cHexAmPheOCH2CH2OCH2CH2OH, DMSO/water
[6] = gel of cHexAm(PheAQ)(CH2CH2OCH2CH2OH)2, 1:1 molar
[7] = gel of cHexAm(PheAQ)(CH2CH2OCH2CH2OH)2, gelator:danazol 2:1
[8] = gel of cHexAm(PheAQ)(CH2CH2OCH2CH2OH)2, gelator:danazol 5:1
[9] = gel of cHexAmPheOCH2CH2OCH2CH2OH, 2:1 molar
[10] = gel of cHexAmPheOCH2CH2OCH2CH2OH, gelator:danazol 5:1
[11] = reference sample, only danazol in 100 μL DMSO and 900 μL water

O=C(O)[C@@H]1C[C@H](C(=O)O)C[C@H](C(=O)N[C@@H](Cc2ccccc2)C(=O)NCc2ccccc2)C1 [cHex(AmPheAmBn)(COOH)2]
Gel test [1]: gel

COc1ccc(NC(=O)[C@H](Cc2ccccc2)NC(=O)[C@@H]2C[C@H](C(=O)O)C[C@H](C(=O)O)C2)cc1 [cHex(AmPheAmPhOMe)(COOH)2]
Gel test [1]: clear gel

C#C[C@]1(O)CC[C@H]2[C@@H]3CCC4=Cc5oncc5C[C@]4(C)[C@H]3CC[C@@]21C [danazol]
amorphous globular particles ([2]; FIG. 6 (a): gel of cHexAm(PheAmAQ)(CH2CH2OCH2CH2OH)2, DMSO/water): < 2 μm | amorphous globular particles [2, 5]: < 2 μm | some needle-shaped crystals (long axis) [2, 5]: 25-50 μm | rod-shaped crystals ([2]; FIG. 6 (c): reference without gelator, DMSO/water): 20-120 μm | average size of danazol particles ([3]; freeze-dried powder of gel of cHexAm(PheAQ)(CH2CH2O CH2CH2OH)2, 5:1, DMSO/water 50/950 μL): 14-70 nm | width of very few rod-shaped danazol particles ([3]; freeze-dried powder of gel of cHexAmPheOCH2CH2OCH2CH2OH, 5:1): 500-900 nm | average size of danazol particles ([3]; freeze-dried powder of gel of cHexAmPheOCH2CH2OCH2CH2OH, 5:1, DMSO/water 50/950 μL): 20 nm | length of some rod-shaped danazol particles [3, 6]: 9 μm | width of some rod-shaped danazol particles [3, 6]: 0.7 μm | average size of danazol particles ([3]; gel of cHexAm(PheAQ)(CH2CH2OCH2CH2OH)2, 1:1 molar, DMSO/water 50/950 μL): 140-700 nm | average size of danazol particles [3, 7]: 28 nm | size of very few danazol particles [3, 7]: 10 μm | average size of danazol particles [3, 8]: 14 nm | size of some danazol particles [3, 8]: 400 nm | length of rod-shaped danazol particles ([3]; gel of cHexAmMetOH, 2:1 molar, DMSO/water 100/900 μL): 1-10 μm | length of rod-shaped danazol particles [3, 9]: 0.6-6 μm | width of rod-shaped danazol particles [3, 9]: 0.2-0.6 μm | average size of danazol particles [3, 10]: 20 nm | size of some danazol particles [3, 10]: approximately 200 nm | length of rod-shaped danazol particles [3, 11]: 15-53 μm | width of rod-shaped danazol particles [3, 11]: 0.5-10 μm

NS(=O)(=O)c1cc(C(=O)O)c(NCc2ccco2)cc1Cl [furosemide]
butterfly-shaped crystals (long axis) ([2]; FIG. 5 (a): gel of cHexAm(PheAmBn)(CH2CH2OCH2CH2OH)2, PG/PEG400/water): ~25 μm | butterfly-shaped crystals (long axis) ([2]; FIG. 5 (b): gel of cHexAm(PheAmPhOMe)(CH2CH2OCH2CH2OH)2, PG/PEG400/water): ~25 μm | globular crystals ([2]; FIG. 5 (c): gel of cHexAmPheOCH2CH2OCH2CH2OH, PG/PEG400/water): ~25 μm | rod-shaped crystals (long axis) ([2]; FIG. 5 (d): reference without gelator, PG/PEG400/water): 25-250 μm

c1cc2ccc3cccc4ccc(c1)c2c34 [pyrene]
size of pyrene particles ([4]; gel of cHexAm(PheAQ)(CH2CH2OCH2CH2OH)2, DMSO/H2O, room temperature, dark, after 7 days (FIG. 1)): 37-185 nm | size of pyrene crystals ([4]; gel of cHexAm(PheAQ)(CH2CH2OCH2CH2OH)2, after 1 month (FIG. 1)): ~150 nm | size of pyrene particles ([4]; gel of cHexAm(PheAQ)(CH2CH2OCH2CH2OH)2, after 18 days (FIG. 1)): 30-190 nm | size of larger pyrene crystals ([4]; gelator in solution, DMSO/1N HCl, after 1 month (FIG. 2)): 6 μm | size of pyrene crystals ([4]; gelator in solution, DMSO/1N HCl, after 7 days (FIG. 2)): 0.2-3 μm | size of pyrene crystals ([4]; reference, only pyrene in DMSO/H2O, after 2 months (FIG. 3)): 2-12 μm
